# Values of other authors in US20240252447A1 (Ovid Therapeutics Inc., priority 2019, published 2024).
# Experiments:
# [1] = test system: sleep onset and sleep maintenance; conditions: three-month efficacy study, insomnia
# [2] = patients with a history of drug abuse
structure (smiles),measurement,setting,value
"Oc1noc2c1CCNC2 [Gaboxadol, 4,5,6,7-tetrahydroisoxazolo [5,4-c]pyridine-3-ol]",effects in sleep onset and sleep maintenance,[1],failed to show significant effects in sleep onset and sleep maintenance
same,time to peak concentration,conventional pharmaceutical formulations such as tablets and capsules,≤ 30 min
same,half-life (t1/2),plasma half-life,1.5 to 2 h
same,psychiatric adverse events,[2],steep increase in psychiatric adverse events
